Reference: patent publication US7538193B2, “NO-modified hemoglobins and uses therefor” (Duke University, priority 1995, dated 2009)

Legend:
[1] = tested on: rabbit thoracic aortic rings, endothelium removed; experiment: Oxygen-dependent vessel ring bioassay (Examples 22, 23); assay type: cell-based
[2] = tested on: rat brain (caudatoputamen nucleus); experiment: Brain blood flow in rats by H2 clearance (Example 12); assay type: in vivo; conditions: rats breathing 21% O2; 100 or 1000 nmol/kg
Procedure: SNO-Hb(FeII)O2, having a SNO/Hb ratio of 2, was prepared (from HbA0) by reaction with S-nitrosothiol. Rats breathing 21% O2 were injected (time 0) with Hbs prepared from HbA0 as indicated in FIG. 10 (open circles, SNO-Hb (100 nmol/kg); filled circles, SNO-Hb (1000 nmol/kg); filled squares, unmodified Hb (1000 nmol/kg)). Three rats were used per experiment. Blood flow was measured in brain using the H2 clearance method; microelectrodes were placed in the brain stereotactically. […] NO group release is promoted by local tissue hypoxia.

[3] = tested on: substantia nigra, caudate putamen nucleus and parietal cortex of Sprague-Dawley rats; experiment: O2-dependent local cerebral blood flow in rats (Example 25); assay type: in vivo, rat; conditions: 1 μmol/kg infused over 3 minutes
Procedure: Adult male Sprague-Dawley rats (290-350 g) were anesthetized with sodium pentobarbital (50 mg/kg IP), intubated and ventilated with a small animal respirator (Edco Scientific Inc., Chapel Hill, N.C.) at a rate and tidal volume to maintain normal values of PaCO2 (35-45 mm Hg; PaCO2=systemic arterial blood carbon dioxide tension). The femoral vein and artery were cannulated for infusion of drugs and for continuous monitoring of systemic blood pressure, respectively. Aliquots of arterial blood (200 μl) were drawn periodically to measure blood gas tensions and pH (Instrumentation Laboratory Co., model 1304 blood gas/pH analyzer). The blood was replaced intravenously with three volumes of normal saline. The inspired O2 concentration was varied using premixed gases balanced with nitrogen. The tissue PO2 was measured continuously with polarographic platinum microelectrodes (50 μm O.D. coated with hydrophobic gas permeable Nafion) implanted stereotaxically in both the right and left hippocampus (AP-3.4 mm, ML+2.2 mm), caudate putamen nucleus and substantia nigra (see coordinates below) (Young, W., Stroke, 11:552-564 (1980); Heiss, W. D. and Traupett, H., Stroke, 12:161-167 (1981); Dewhirst, M. W. et al., Cancer Res., 54:3333-3336 (1994); Kerger, H. et al., Am. J. Physiol., 268:H802-H810 (1995)). The PO2 electrodes were polarized to −0.65V against a distant Ag/AgCl reference located on the tail and the current flow was measured using a low-impedance nA-meter. Regional arterial PO2 was adjusted by changing the inspired O2 concentration and atmospheric pressure.
Polarographic hydrogen (H2)-sensitive microelectrodes were implanted stereotaxically in the substantia nigra (AP −5.3 mm, ML −2.4 mm to the bregma, depth 3.2 mm), caudate putamen nucleus (CPN) (AP +0.8 mm, ML −2.5 mm, depth 5.2 mm) and parietal cortex, for measurement of regional blood flow (Young, W., Stroke, 11:552-564 (1980); Heiss, W. D. and Traupett, H., Stroke, 12:161-167 (1981)). The microelectrodes were made from platinum wire and insulated with epoxy, with the exception of the tip (1 mm) which was coated with Nafion. For placement, the electrodes were mounted on a micromanipulator and the rat's head was immobilized in a Kopf stereotaxic frame. H2-sensitive electrodes were polarized to +400 mV against a distant reference electrode on the tail, and the polarographic current was measured using a low-impedance nA meter during and after the inhalation of hydrogen gas (2.5%) for 1 min. Both the hydrogen clearance curves and voltage for oxygen measurements were made using PC WINDAQ (software, DI-200 AC, Dataq Instruments, Inc., Akron, Ohio). Cerebral blood flow was calculated using the initial slope method (Young, W., Stroke, 11:552-564 (1980); Heiss, W. D. and Traupett, H., Stroke, 12:161-167 (1981)). Regional blood flow responses were monitored for 30 min. prior to and 30 min. following drug administration; hemoglobins were given at time 0.
The cerebrovascular effects of SNO-Hb were measured in adult male Sprague-Dawley rats using O2 and H2 (blood flow)-sensitive microelectrodes that were placed stereotaxically in several regions of the brain as for Example 24.

[4] = tested on: rabbit thoracic aorta rings; experiment: Rabbit aortic ring bioassay: vessel tone and ACh (EDRF)-mediated relaxation; assay type: cell-based; conditions: 1 μM addition; ACh-mediated relaxation of rabbit aortic ring
Source text: The effects of native Hb on EDRF responses were compared with Hb preparations in which the thiol or heme centers had been blocked by alkylation or cyanmet derivitization, respectively. All preparations of Hb elicited contractions; however, those of native Hb (in which both SH and metal centers are free for interaction) were most pronounced. […] Relaxations were inhibited to lesser degrees by cyanmet Hb (CN-Hb) (in which hemes were blocked from reaction) and NEM-Hb (in which thiol groups were alkylated by N-ethylmaleimide). […] Direct measurement of SNO-Hb, formed from EDRF under similar conditions, is described in Example 8.
Descending rabbit thoracic aorta were cut into 3 mm rings and mounted on stirrups attached to force transducers (model FT03, Grass Instruments, Quincy, Mass.) for measurement of isometric tone. The details of this bioassay system have been previously described (Stamler, J. S., et al., Proc. Natl. Acad. Sci. USA, 89:444-448 (1992)). Cyanmet Hb was prepared from human HbA according to published protocols (Kilbourn, R. G. et al. Biochem. Biophys. Res. Comm., 199:155-162, (1994)). Alkylation of HbA with N-ethylmaleimide was followed by desalting across G-25 Sephadex to remove excess NEM. Removal of unmodified Hbcysβ93 was achieved by passage through Hg-containing affinity columns. The alkylation of free SH groups was verified using 5,5′-dithio-bis[2-nitrobenzoic acid].

Hb: native, underivatized human hemoglobin A purified from red cells
effect on vessel tone ([1]; 1 μM, rings contracted with phenylephrine under hypoxic conditions (6-7 torr)): progressive increases in vessel tone
effect of 10 μM glutathione on the response ([1]; 10 μM glutathione in bioassay chambers): no effect
effect on vessel tension ([1]; 95% O2 or 21% O2 (R-structure)): contract blood vessels
effect on vessel tension ([1]; <1% O2 (~6 torr), T-structure): strongly contracts blood vessels
blood flow to the brain [2]: decreases blood flow
local cerebral blood flow ([3]; 21% O2): decreased local blood flow
local cerebral blood flow ([3]; 100% O2 + 3 ATA): tended to decrease cerebral flow to similar extents
local cerebral blood flow ([3]; 100% O2): preserved
% ACh RELAXATION [4]: 31.9 ± 6.9 (n = 7) %
